Assay results: the NIST ThermoML archive (doi:10.1021/je050196o)
± gives the expanded uncertainty stated by the source.

Experiments:
[1] = xn = mol fraction of the nth substance listed; conditions: 101 kPa, Liquid; for viscosity: Capillary tube (Ostwald / Ubbelohde) method; for mass density: Pycnometric method
[2] = 101 kPa, Liquid; for viscosity: Capillary tube (Ostwald / Ubbelohde) method; for mass density: Pycnometric method

C=C(C)C(=O)OCc1ccccc1 [benzyl methacrylate] + COCC(C)OC(C)=O
[1]
Conditions	mass density, 298.15 K [kg/m3]	mass density, 308.15 K [kg/m3]	mass density, 318.15 K [kg/m3]	viscosity, 298.15 K [mPa·s]	viscosity, 308.15 K [mPa·s]	viscosity, 318.15 K [mPa·s]
x2 = 0	1034.7 ± 2.3	1025.8 ± 2.3	1017 ± 2.3	2.302 ± 0.065	1.885 ± 0.064	1.58 ± 0.063
x2 = 0.1	1029 ± 2.3	1019.9 ± 2.3	1010.9 ± 2.3	2.245 ± 0.065	1.84 ± 0.063	1.544 ± 0.062
x2 = 0.2	1023.1 ± 2.3	1013.8 ± 2.2	1004.6 ± 2.2	2.123 ± 0.064	1.743 ± 0.063	1.465 ± 0.062
x2 = 0.3	1017 ± 2.2	1007.6 ± 2.2	998.2 ± 2.2	1.991 ± 0.063	1.638 ± 0.062	1.377 ± 0.062
x2 = 0.4	1010.6 ± 2.2	1001.1 ± 2.2	991.5 ± 2.2	1.857 ± 0.063	1.53 ± 0.062	1.289 ± 0.061
x2 = 0.4999	1003.8 ± 2.2	994.2 ± 2.1	984.4 ± 2.1	1.694 ± 0.062	1.399 ± 0.061	1.183 ± 0.061
x2 = 0.6	996.6 ± 2.1	986.9 ± 2.1	976.9 ± 2.1	1.559 ± 0.062	1.286 ± 0.061	1.086 ± 0.061
x2 = 0.7	989 ± 2.1	979.2 ± 2.1	969 ± 2.1	1.434 ± 0.061	1.189 ± 0.061	1.007 ± 0.061
x2 = 0.8	980.7 ± 2.1	970.7 ± 2	960.3 ± 2	1.327 ± 0.061	1.105 ± 0.061	0.937 ± 0.061
x2 = 0.9	971.9 ± 2	961.8 ± 2	951.2 ± 2	1.232 ± 0.061	1.028 ± 0.061	0.874 ± 0.06

COCC(C)OC(C)=O (configuration not stated) [1-methoxy-2-propyl acetate] + C=C(C)C(=O)O
[1], x1 = 1
Conditions	mass density [kg/m3]	viscosity [mPa·s]
298.15 K	961.4 ± 2	1.071 ± 0.023
308.15 K	951.4 ± 2	0.904 ± 0.019
318.15 K	940.7 ± 2	0.777 ± 0.017

COCC(C)OC(C)=O (configuration not stated) [1-methoxy-2-propyl acetate] + C=C(C)C(=O)OCc1ccccc1
[1], x1 = 1
Conditions	mass density [kg/m3]	viscosity [mPa·s]
298.15 K	961.4 ± 2	1.071 ± 0.061
308.15 K	951.4 ± 2	0.904 ± 0.06
318.15 K	940.7 ± 2	0.777 ± 0.06

C=C(C)C(=O)OCCO [2-hydroxyethyl 2-methyl-2-propenoate]
[2]
Conditions	mass density [kg/m3]	viscosity [mPa·s]
298.15 K	1067.1 ± 2.4	5.784 ± 0.13
308.15 K	1057.7 ± 2.4	4.194 ± 0.096
318.15 K	1048.6 ± 2.4	3.181 ± 0.088

C=C(C)C(=O)O [2-methyl-2-propenoic acid]
[2]
Conditions	mass density [kg/m3]	viscosity [mPa·s]
298.15 K	1009.5 ± 2	1.267 ± 0.026
308.15 K	999.4 ± 2	1.078 ± 0.023
318.15 K	989.2 ± 2	0.945 ± 0.02

C=C(C)C(=O)OCCO [2-hydroxyethyl 2-methyl-2-propenoate] + COCC(C)OC(C)=O
[1]
Conditions	mass density, 298.15 K [kg/m3]	mass density, 308.15 K [kg/m3]	mass density, 318.15 K [kg/m3]	viscosity, 298.15 K [mPa·s]	viscosity, 308.15 K [mPa·s]	viscosity, 318.15 K [mPa·s]
x2 = 0	1067.1 ± 2.4	1057.7 ± 2.4	1048.6 ± 2.4	5.784 ± 0.13	4.194 ± 0.096	3.181 ± 0.088
x2 = 0.1	1056.4 ± 2.4	1046.7 ± 2.3	1037.3 ± 2.3	4.764 ± 0.11	3.519 ± 0.089	2.71 ± 0.085
x2 = 0.2	1045.7 ± 2.3	1035.9 ± 2.3	1026.1 ± 2.3	3.84 ± 0.089	2.9 ± 0.085	2.273 ± 0.083
x2 = 0.3	1034.9 ± 2.3	1025 ± 2.2	1015.1 ± 2.2	3.222 ± 0.086	2.477 ± 0.084	1.969 ± 0.082
x2 = 0.4	1024.1 ± 2.2	1014.2 ± 2.2	1004.1 ± 2.2	2.719 ± 0.084	2.123 ± 0.083	1.709 ± 0.082
x2 = 0.5	1013.5 ± 2.2	1003.5 ± 2.2	993.3 ± 2.1	2.257 ± 0.083	1.79 ± 0.082	1.461 ± 0.081
x2 = 0.6	1003 ± 2.1	993 ± 2.1	982.6 ± 2.1	1.922 ± 0.082	1.55 ± 0.081	1.284 ± 0.081
x2 = 0.7	992.6 ± 2.1	982.5 ± 2.1	972 ± 2.1	1.651 ± 0.081	1.341 ± 0.081	1.117 ± 0.081
x2 = 0.8	982.2 ± 2.1	971.9 ± 2	961.3 ± 2	1.389 ± 0.081	1.147 ± 0.081	0.969 ± 0.08
x2 = 0.8999	971.8 ± 2	961.5 ± 2	950.8 ± 2	1.234 ± 0.081	1.052 ± 0.08	0.889 ± 0.08

COCC(C)OC(C)=O (configuration not stated) [1-methoxy-2-propyl acetate] + C=C(C)C(=O)OCCO
[1], x1 = 1
Conditions	mass density [kg/m3]	viscosity [mPa·s]
298.15 K	961.4 ± 2	1.071 ± 0.08
308.15 K	951.4 ± 2	0.904 ± 0.08
318.15 K	940.7 ± 2	0.777 ± 0.08

C=C(C)C(=O)O [2-methyl-2-propenoic acid] + COCC(C)OC(C)=O
[1]
Conditions	mass density, 298.15 K [kg/m3]	mass density, 308.15 K [kg/m3]	mass density, 318.15 K [kg/m3]	viscosity, 298.15 K [mPa·s]	viscosity, 308.15 K [mPa·s]	viscosity, 318.15 K [mPa·s]
x2 = 0	1009.5 ± 2	999.4 ± 2	989.2 ± 2	1.267 ± 0.026	1.078 ± 0.023	0.945 ± 0.02
x2 = 0.1	1004 ± 2	994.1 ± 2	983.9 ± 2	1.423 ± 0.03	1.202 ± 0.025	1.033 ± 0.022
x2 = 0.2	999 ± 2	989.3 ± 2	979.4 ± 2	1.506 ± 0.032	1.301 ± 0.027	1.105 ± 0.023
x2 = 0.3	993.9 ± 2	984.1 ± 2	973.9 ± 2	1.56 ± 0.033	1.345 ± 0.028	1.124 ± 0.024
x2 = 0.3999	989.1 ± 2	979.2 ± 2	968.9 ± 2	1.585 ± 0.033	1.348 ± 0.028	1.125 ± 0.024
x2 = 0.5	984.8 ± 2	975 ± 2	964.8 ± 2	1.569 ± 0.033	1.31 ± 0.028	1.1 ± 0.023
x2 = 0.6	980.1 ± 2	970.3 ± 2	959.9 ± 2	1.499 ± 0.032	1.24 ± 0.026	1.049 ± 0.022
x2 = 0.7	975.8 ± 2	966 ± 2	955.5 ± 2	1.411 ± 0.03	1.168 ± 0.025	0.988 ± 0.021
x2 = 0.7999	970.8 ± 2	960.9 ± 2	950.5 ± 2	1.301 ± 0.028	1.081 ± 0.023	0.929 ± 0.02
x2 = 0.9	965.8 ± 2	956 ± 2	945.6 ± 2	1.175 ± 0.025	0.985 ± 0.021	0.844 ± 0.018

COCC(C)OC(C)=O (configuration not stated) [1-methoxy-2-propyl acetate]
[2]
Conditions	mass density [kg/m3]	viscosity [mPa·s]
298.15 K	961.4 ± 2	1.071 ± 0.08
308.15 K	951.4 ± 2	0.904 ± 0.08
318.15 K	940.7 ± 2	0.777 ± 0.08

C=C(C)C(=O)OCc1ccccc1 [benzyl methacrylate]
[2]
Conditions	mass density [kg/m3]	viscosity [mPa·s]
298.15 K	1034.7 ± 2.3	2.302 ± 0.065
308.15 K	1025.8 ± 2.3	1.885 ± 0.064
318.15 K	1017 ± 2.3	1.58 ± 0.063
